Article PMC5218480 (PLoS ONE, 2017)

System: MV-4-11 cells
Assay: Gene expression microarray analysis (Affymetrix PrimeView) and GSEA
Type: cell-based, human
Parameters: RFU PODN (11730768_x_at) / Fold change /veh PODN (11730768_x_at) / RFU LINC00158 (11744669_a_at) / Fold change /veh LINC00158 (11744669_a_at) / RFU DUSP10 (11751237_a_at) / Fold change /veh DUSP10 (11751237_a_at) / RFU ID3 (11757404_x_at) / Fold change /veh ID3 (11757404_x_at) / RFU PLEKHG5 (11737974_s_at) / Fold change /veh PLEKHG5 (11737974_s_at) / RFU LRRC4B (11730491_at) / Fold change /veh LRRC4B (11730491_at) / RFU GIMAP4 (11747438_a_at) / Fold change /veh GIMAP4 (11747438_a_at) / RFU KRT8 (11758183_x_at) / Fold change /veh KRT8 (11758183_x_at) / RFU CNN1 (11734310_a_at) / Fold change /veh CNN1 (11734310_a_at) / RFU VPS37D (11726825_at) / Fold change /veh VPS37D (11726825_at) / RFU C10orf10 (11716522_x_at) / Fold change /veh C10orf10 (11716522_x_at) / RFU KIR2DL2 /// KIR2DL4 /// KIR2DL5A /// KIR2DL5B /// KIR2DS1 /// KIR2DS2 /// KIR2DS3 /// KIR2DS4 /// KIR3DL3 /// KIR3DL3 /// KIR3DS1 (11738374_at) / Fold change /veh KIR2DL2 /// KIR2DL4 /// KIR2DL5A /// KIR2DL5B /// KIR2DS1 /// KIR2DS2 /// KIR2DS3 /// KIR2DS4 /// KIR3DL3 /// KIR3DL3 /// KIR3DS1 (11738374_at) / RFU C1QL1 (11718748_at) / Fold change /veh C1QL1 (11718748_at) / RFU TMPRSS4 (11747572_a_at) / Fold change /veh TMPRSS4 (11747572_a_at) / RFU HAMP (11756126_x_at) / Fold change /veh HAMP (11756126_x_at) / RFU RNFT2 (11725882_a_at) / Fold change /veh RNFT2 (11725882_a_at) / RFU NR4A2 (11747474_a_at) / Fold change /veh NR4A2 (11747474_a_at) / RFU ABCC12 (11746883_a_at) / Fold change /veh ABCC12 (11746883_a_at) / RFU TMEM136 (11760407_x_at) / Fold change /veh TMEM136 (11760407_x_at) / RFU CLDN22 /// WWC2 (11732394_at) / Fold change /veh CLDN22 /// WWC2 (11732394_at) / RFU HLA-DPB1 (11760878_x_at) / Fold change /veh HLA-DPB1 (11760878_x_at) / RFU SPINT1 (11716480_a_at) / Fold change /veh SPINT1 (11716480_a_at) / RFU GAP43 (11754022_s_at) / Fold change /veh GAP43 (11754022_s_at) / RFU A4GNT (11735810_at) / Fold change /veh A4GNT (11735810_at) / RFU PRB3 (11715151_x_at) / Fold change /veh PRB3 (11715151_x_at) / RFU TUBB4B (11761932_at) / Fold change /veh TUBB4B (11761932_at) / RFU CAPN14 (11732068_a_at) / Fold change /veh CAPN14 (11732068_a_at) / RFU TMCC2 (11721928_a_at) / Fold change /veh TMCC2 (11721928_a_at) / RFU IRGQ (11745062_a_at) / Fold change /veh IRGQ (11745062_a_at) / RFU FAM174B (11720279_a_at) / Fold change /veh FAM174B (11720279_a_at) / RFU TMPRSS4 (11748680_a_at) / Fold change /veh TMPRSS4 (11748680_a_at) / RFU FAM212B (11763350_a_at) / Fold change /veh FAM212B (11763350_a_at) / RFU PLEKHG5 (11743358_a_at) / Fold change /veh PLEKHG5 (11743358_a_at) / RFU ZSCAN30 (11745921_a_at) / Fold change /veh ZSCAN30 (11745921_a_at) / RFU CMKLR1 (11741424_a_at) / Fold change /veh CMKLR1 (11741424_a_at) / RFU LOC101060620 /// MAPK8IP1 (11723275_at) / Fold change /veh LOC101060620 /// MAPK8IP1 (11723275_at) / RFU SPTSSB (11747773_x_at) / Fold change /veh SPTSSB (11747773_x_at) / RFU PRSS12 (11739890_at) / Fold change /veh PRSS12 (11739890_at) / RFU BIN1 (11741810_x_at) / Fold change /veh BIN1 (11741810_x_at) / RFU WNT11 (11732464_a_at) / Fold change /veh WNT11 (11732464_a_at) / RFU C10orf10 (11716521_a_at) / Fold change /veh C10orf10 (11716521_a_at) / RFU C5orf56 (11738089_at) / Fold change /veh C5orf56 (11738089_at) / RFU CYB561 (11721691_x_at) / Fold change /veh CYB561 (11721691_x_at) / RFU ANKRD19P (11752326_a_at) / Fold change /veh ANKRD19P (11752326_a_at) / RFU OR2T12 /// OR2T33 /// OR2T8 (11738714_s_at) / Fold change /veh OR2T12 /// OR2T33 /// OR2T8 (11738714_s_at) / RFU VCAN (11748164_a_at) / Fold change /veh VCAN (11748164_a_at) / RFU JSRP1 (11732532_at) / Fold change /veh JSRP1 (11732532_at) / RFU KRTAP10-11 (11738290_x_at) / Fold change /veh KRTAP10-11 (11738290_x_at) / RFU MYO3A (11730013_a_at) / Fold change /veh MYO3A (11730013_a_at) / RFU EBF3 (11725865_a_at) / Fold change /veh EBF3 (11725865_a_at) / RFU CAMK2N1 (11719241_x_at) / Fold change /veh CAMK2N1 (11719241_x_at) / RFU C5orf56 (11738088_a_at) / Fold change /veh C5orf56 (11738088_a_at) / RFU OLFML3 (11715873_a_at) / Fold change /veh OLFML3 (11715873_a_at) / RFU LOC100653217 /// NTM (11731650_a_at) / Fold change /veh LOC100653217 /// NTM (11731650_a_at) / RFU MAPK11 (11762145_a_at) / Fold change /veh MAPK11 (11762145_a_at) / RFU FIZ1 (11724087_x_at) / Fold change /veh FIZ1 (11724087_x_at) / RFU OASL (11726364_x_at) / Fold change /veh OASL (11726364_x_at) / RFU SOX15 (11748057_x_at) / Fold change /veh SOX15 (11748057_x_at) / RFU CD79A (11719716_a_at) / Fold change /veh CD79A (11719716_a_at) / RFU HIST1H1D (11736915_at) / Fold change /veh HIST1H1D (11736915_at) / RFU CASKIN2 (11723855_a_at) / Fold change /veh CASKIN2 (11723855_a_at) / RFU LOC730098 (11760151_x_at) / Fold change /veh LOC730098 (11760151_x_at) / RFU OR4N2 (11742367_at) / Fold change /veh OR4N2 (11742367_at) / RFU PRRT2 (11749266_a_at) / Fold change /veh PRRT2 (11749266_a_at) / RFU SNX32 (11753110_a_at) / Fold change /veh SNX32 (11753110_a_at) / RFU CDHR5 (11726645_a_at) / Fold change /veh CDHR5 (11726645_a_at) / RFU RCAN1 (11760418_a_at) / Fold change /veh RCAN1 (11760418_a_at) / RFU FAM167A (11723789_a_at) / Fold change /veh FAM167A (11723789_a_at) / RFU FAM26E (11764081_at) / Fold change /veh FAM26E (11764081_at) / RFU ISYNA1 (11749810_s_at) / Fold change /veh ISYNA1 (11749810_s_at) / RFU ACY1 (11761880_at) / Fold change /veh ACY1 (11761880_at) / RFU 11764098_at / Fold change /veh 11764098_at / RFU SAMD14 (11745864_x_at) / Fold change /veh SAMD14 (11745864_x_at) / RFU NPB (11741838_a_at) / Fold change /veh NPB (11741838_a_at) / RFU TMPRSS6 (11731388_a_at) / Fold change /veh TMPRSS6 (11731388_a_at) / RFU KRTAP10-2 (11738614_at) / Fold change /veh KRTAP10-2 (11738614_at) / RFU ARHGAP8 /// PRR5-ARHGAP8 (11727945_x_at) / Fold change /veh ARHGAP8 /// PRR5-ARHGAP8 (11727945_x_at) / RFU KRTAP5-7 /// NADSYN1 (11734609_at) / Fold change /veh KRTAP5-7 /// NADSYN1 (11734609_at) / RFU RASL12 (11751679_a_at) / Fold change /veh RASL12 (11751679_a_at) / RFU CDKN2B (11736163_a_at) / Fold change /veh CDKN2B (11736163_a_at) / RFU PRF1 (11729649_at) / Fold change /veh PRF1 (11729649_at) / RFU, ZNF638 /// ZNF638-IT1 / Fold change vs veh, ZNF638 /// ZNF638-IT1 / RFU, PANK3 / Fold change vs veh, PANK3 / RFU, SH3YL1 / Fold change vs veh, SH3YL1 / RFU, ZEB2 / Fold change vs veh, ZEB2 / RFU, NRIP1 / Fold change vs veh, NRIP1 / RFU, PTTG1IP / Fold change vs veh, PTTG1IP / RFU, CAPN2 / Fold change vs veh, CAPN2 / RFU, MED14 / Fold change vs veh, MED14 / RFU, SNORA58 / Fold change vs veh, SNORA58 / RFU, C1orf63 / Fold change vs veh, C1orf63 / RFU, LRRFIP1 / Fold change vs veh, LRRFIP1 / RFU, NDUFAF7 / Fold change vs veh, NDUFAF7 / RFU, SLC12A2 / Fold change vs veh, SLC12A2 / RFU, IBTK / Fold change vs veh, IBTK / RFU, ESF1 / Fold change vs veh, ESF1 / Fold change vs veh, TMEM50B / RFU, TAOK1 / Fold change vs veh, TAOK1 / RFU, ACBD3 / Fold change vs veh, ACBD3 / RFU, TMA16 / Fold change vs veh, TMA16 / RFU, RWDD3 / Fold change vs veh, RWDD3 / RFU, BCAT1 / Fold change vs veh, BCAT1 / RFU, EDEM3 / Fold change vs veh, EDEM3 / RFU, TMEM33 / Fold change vs veh, TMEM33 / RFU, WDR75 / Fold change vs veh, WDR75 / RFU, AHCTF1 / Fold change vs veh, AHCTF1 / RFU, TFRC / Fold change vs veh, TFRC / RFU, ZDHHC17 / Fold change vs veh, ZDHHC17 / RFU, NOM1 / Fold change vs veh, NOM1 / RFU, ARL8B / Fold change vs veh, ARL8B / RFU, ZBTB11 / Fold change vs veh, ZBTB11 / RFU, TAMM41 / Fold change vs veh, TAMM41 / RFU, KIAA1704 /// LOC100996395 / Fold change vs veh, KIAA1704 /// LOC100996395 / RFU, ING1 / Fold change vs veh, ING1 / RFU, TRMT61B / Fold change vs veh, TRMT61B / RFU, FUBP3 / Fold change vs veh, FUBP3 / RFU, TP53 / Fold change vs veh, TP53 / RFU, TNKS2 / Fold change vs veh, TNKS2 / RFU, ZFP14 / Fold change vs veh, ZFP14 / RFU, ACTR2 / Fold change vs veh, ACTR2 / RFU, PPP3R1 / Fold change vs veh, PPP3R1 / RFU, PIK3R1 / Fold change vs veh, PIK3R1 / RFU, HNRNPA1 / Fold change vs veh, HNRNPA1 / RFU, RNF170 / Fold change vs veh, RNF170 / RFU, ZNF28 / Fold change vs veh, ZNF28 / RFU, RNGTT / Fold change vs veh, RNGTT / RFU, OGT / Fold change vs veh, OGT / RFU, BRD1 / Fold change vs veh, BRD1 / RFU, MARS / Fold change vs veh, MARS / RFU, ZNF655 / Fold change vs veh, ZNF655 / RFU, FAHD1 / Fold change vs veh, FAHD1 / RFU, BDP1 / Fold change vs veh, BDP1 / RFU, LRRCC1 / Fold change vs veh, LRRCC1 / RFU, ARID1A / Fold change vs veh, ARID1A / RFU, ZNF146 / Fold change vs veh, ZNF146 / RFU, ZNF330 / Fold change vs veh, ZNF330 / RFU, GPN3 / Fold change vs veh, GPN3 / RFU, C9orf123 / Fold change vs veh, C9orf123 / RFU, N4BP2L2 / Fold change vs veh, N4BP2L2 / RFU, ARFIP1 / Fold change vs veh, ARFIP1 / RFU, FAM179B / Fold change vs veh, FAM179B / RFU, BCL10 / Fold change vs veh, BCL10 / RFU, UHRF1BP1L / Fold change vs veh, UHRF1BP1L / RFU, BET1 / Fold change vs veh, BET1 / RFU, CNOT2 / Fold change vs veh, CNOT2 / RFU, ZNF268 / Fold change vs veh, ZNF268 / Fold change vs veh, ZNF507 / RFU, DGCR2 / Fold change vs veh, DGCR2 / RFU, WDSUB1 / Fold change vs veh, WDSUB1 / Fold change vs veh, HSP90B1 /// MIR3652 / RFU, ADSS / Fold change vs veh, ADSS / RFU, GK / Fold change vs veh, GK / RFU, ZNF148 / Fold change vs veh, ZNF148 / RFU, TAF9 / Fold change vs veh, TAF9 / RFU, SLC1A5 / Fold change vs veh, SLC1A5 / RFU, SLMO2 / Fold change vs veh, SLMO2 / RFU, ABCC4 / Fold change vs veh, ABCC4 / RFU, LOC101060439 /// RAP1B / Fold change vs veh, LOC101060439 /// RAP1B / RFU, RFX7 / Fold change vs veh, RFX7 / RFU, GTPBP10 / Fold change vs veh, GTPBP10 / RFU, CNEP1R1 / Fold change vs veh, CNEP1R1 / RFU, BIVM-ERCC5 /// ERCC5 / Fold change vs veh, BIVM-ERCC5 /// ERCC5 / RFU, ILF3 / Fold change vs veh, ILF3 / RFU 11762660_at / Fold change /veh 11762660_at / RFU VCAN (11757783_s_at) / Fold change /veh VCAN (11757783_s_at) / RFU DDX43 (11728927_at) / Fold change /veh DDX43 (11728927_at) / RFU KRT8 (11758188_x_at) / Fold change /veh KRT8 (11758188_x_at) / RFU NKD1 (11759106_at) / Fold change /veh NKD1 (11759106_at) / RFU SRD5A1 (11742802_a_at) / Fold change /veh SRD5A1 (11742802_a_at) / RFU TPSAB1 /// TPSB2 (11721975_s_at) / Fold change /veh TPSAB1 /// TPSB2 (11721975_s_at) / RFU GSTM3 (11746129_a_at) / Fold change /veh GSTM3 (11746129_a_at) / RFU IL23R (11737362_x_at) / Fold change /veh IL23R (11737362_x_at) / RFU TMEM51 (11727254_a_at) / Fold change /veh TMEM51 (11727254_a_at) / RFU PIWIL2 (11732686_x_at) / Fold change /veh PIWIL2 (11732686_x_at) / RFU ORM1 (11744905_x_at) / Fold change /veh ORM1 (11744905_x_at) / RFU CCDC152 (11743942_at) / Fold change /veh CCDC152 (11743942_at) / RFU ECM1 (11717891_a_at) / Fold change /veh ECM1 (11717891_a_at) / RFU IL23R (11748794_a_at) / Fold change /veh IL23R (11748794_a_at) / RFU TNFAIP8L3 (11732012_x_at) / Fold change /veh TNFAIP8L3 (11732012_x_at) / RFU MBOAT4 (11741988_at) / Fold change /veh MBOAT4 (11741988_at) / RFU 11764193_at / Fold change /veh 11764193_at / RFU TMEM53 (11763286_at) / Fold change /veh TMEM53 (11763286_at) / RFU MAGEB2 (11727129_at) / Fold change /veh MAGEB2 (11727129_at) / RFU TMEM200A (11744735_a_at) / Fold change /veh TMEM200A (11744735_a_at) / RFU CCDC152 (11751479_a_at) / Fold change /veh CCDC152 (11751479_a_at) / RFU FAM211A (11726209_a_at) / Fold change /veh FAM211A (11726209_a_at) / RFU RGS16 (11746705_a_at) / Fold change /veh RGS16 (11746705_a_at) / RFU VCAN (11755009_s_at) / Fold change /veh VCAN (11755009_s_at) / RFU RHOB (11743442_s_at) / Fold change /veh RHOB (11743442_s_at) / RFU RGS16 (11720943_a_at) / Fold change /veh RGS16 (11720943_a_at) / RFU RGS16 (11720944_at) / Fold change /veh RGS16 (11720944_at) / RFU, VPS4B / Fold change vs veh, VPS4B / RFU, CREB1 / Fold change vs veh, CREB1 / RFU, DNAJC13 / Fold change vs veh, DNAJC13 / RFU, GNAQ / Fold change vs veh, GNAQ / RFU, CDK5R1 / Fold change vs veh, CDK5R1 / RFU, ZRANB3 / Fold change vs veh, ZRANB3 / RFU, CUL4A / Fold change vs veh, CUL4A / RFU, CCNY / Fold change vs veh, CCNY / RFU, UFL1 / Fold change vs veh, UFL1 / RFU, COG3 / Fold change vs veh, COG3 / RFU, DIAPH2 / Fold change vs veh, DIAPH2 / RFU, SKA2 / Fold change vs veh, SKA2 / RFU, AFF3 / Fold change vs veh, AFF3 / RFU, LMF1 / Fold change vs veh, LMF1 / RFU, IPO11 / Fold change vs veh, IPO11 / RFU, DFFB / Fold change vs veh, DFFB / RFU, FOXP1 / Fold change vs veh, FOXP1 / RFU, CARD8 / Fold change vs veh, CARD8 / RFU, STRN3 / Fold change vs veh, STRN3 / RFU, ADK / Fold change vs veh, ADK / RFU, RASSF2 / Fold change vs veh, RASSF2 / RFU, WIPF1 / Fold change vs veh, WIPF1 / RFU, LARP1B / Fold change vs veh, LARP1B / RFU, RASA1 / Fold change vs veh, RASA1 / RFU, RB1 / Fold change vs veh, RB1 / RFU, PPFIA1 / Fold change vs veh, PPFIA1 / RFU, MAT2A / Fold change vs veh, MAT2A / RFU, CCT5 / Fold change vs veh, CCT5 / RFU, WDR92 / Fold change vs veh, WDR92 / RFU, CUX1 / Fold change vs veh, CUX1 / RFU, TTC7A / Fold change vs veh, TTC7A / RFU, TMEM135 / Fold change vs veh, TMEM135 / RFU, DEPTOR / Fold change vs veh, DEPTOR / RFU, CPM / Fold change vs veh, CPM / RFU, DNAJB6 / Fold change vs veh, DNAJB6 / RFU, CACNA2D3 / Fold change vs veh, CACNA2D3 / RFU, DTX4 / Fold change vs veh, DTX4 / RFU, TFCP2 / Fold change vs veh, TFCP2 / RFU, GMCL1 /// GMCL1P1 / Fold change vs veh, GMCL1 /// GMCL1P1 / RFU, AEBP2 / Fold change vs veh, AEBP2 / RFU, SNHG1 /// SNORD22 /// SNORD25 /// SNORD26 /// SNORD27 /// SNORD28 /// SNORD29 /// SNORD31 / Fold change vs veh, SNHG1 /// SNORD22 /// SNORD25 /// SNORD26 /// SNORD27 /// SNORD28 /// SNORD29 /// SNORD31 / Fold change (Aza/veh), C12orf56 (ProbeSet 11735607_a_at) / Fold change (ACY-1035/veh), C12orf56 (ProbeSet 11735607_a_at) / Fold change (Aza/veh), FGFR1OP (ProbeSet 11751329_s_at) / Fold change (ACY-1035/veh), FGFR1OP (ProbeSet 11751329_s_at) / Fold change (Aza/veh), VPS36 (ProbeSet 11739960_a_at) / Fold change (ACY-1035/veh), VPS36 (ProbeSet 11739960_a_at) / RFU SYPL1 (11715823_x_at) / Fold change /veh SYPL1 (11715823_x_at) / RFU IGFBP7 (11715501_s_at) / Fold change /veh IGFBP7 (11715501_s_at) / RFU REEP3 (11722064_at) / Fold change /veh REEP3 (11722064_at) / RFU IGLL1 (11728026_x_at) / Fold change /veh IGLL1 (11728026_x_at): dose or concentration left out as unconfirmed
Settings: ProbeSet 11733831_s_at; LIST D

Nc1ccc(-c2cccs2)cc1NC(=O)c1ccc2c(c1)cc(C1CC1)n2CCN1CCOCC1 [ACY-1035]
Fold change vs veh, GMCL1 /// GMCL1P1: 0.86
